Data as given in PubChem BioAssay (NCI).
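In this assay, cells in 96-well plates receive the compound at five concentrations for 48 hours. Endpoints are linearly interpolated between the surrounding concentrations. GI50 marks 50% less growth. TGI: total growth inhibition.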

Key:
Experiment in all cases: DTP human tumour cell line panel, 48 h
[1] = tested on: NCI-H226 lung
[2] = tested on: OVCAR-3 ovarian
[3] = tested on: LOX IMVI melanoma
[4] = tested on: HCT-15 colon
[5] = tested on: NCI-H23 lung
[6] = tested on: UACC-257 melanoma
[7] = tested on: K-562 leukemia
[8] = tested on: U251 CNS
[9] = tested on: HL-60(TB) leukemia
[10] = tested on: EKVX NSCLC

Row | Compound | GI50 [1] [µM] | TGI [1] [µM] | GI50 [2] [µM] | TGI [2] [µM] | GI50 [3] [µM] | TGI [3] [µM] | GI50 [4] [µM] | TGI [4] [µM] | GI50 [5] [µM] | TGI [5] [µM] | GI50 [6] [µM] | TGI [6] [µM] | GI50 [7] [µM] | TGI [7] [µM] | GI50 [8] [µM] | TGI [8] [µM] | GI50 [9] [µM] | TGI [9] [µM] | GI50 [10] [µM] | TGI [10] [µM]
1 | CC(C)c1ccc(Nc2nccc(-c3cnn4ncccc34)n2)cc1 | 0.227 | 2.45 | 0.516 | > 6.26 | 0.209 | > 7.75 | 0.614 | > 25 | 0.483 | > 7 | 0.563 | 1.6 | 1.19 | > 25 | 0.559 | > 9.71 | 1.32 | 4.12 | 0.64 | 10.2
2 | CC(=O)Nc1ccc(/C=C/C(=O)c2sc(-c3nc(C)c(C(=O)/C=C/c4ccc(NC(C)=O)cc4)s3)nc2C)cc1 |  | > 100 |  | > 100 |  | > 100 |  | > 100 |  | > 100 |  | > 100 |  | > 100 |  | > 100 |  | > 100 |  | > 100
3 | C/C=C/[C@@H]1OC(=O)C2=C[C@@H](O)[C@@H](/C=C/C)O[C@H]21 | 6.17 | 13.9 | 2.45 | 13.1 | 6.44 | 18.5 | 2.82 | 17.2 | 3.08 | 23.3 | 17.7 | 33 | 1.84 |  | 14.6 | 35.6 | 7.47 | > 100 | 7.26 | 21.2
4 | COc1ccc(/C=C2\CCC(CN(C)C)C2=O)cc1OC (stereo not drawn) |  | 28.2 |  | 15.8 |  | 3.96 |  | 8.81 |  | 32.3 |  | 17 |  | 9.12 |  | 30.8 |  | 8.62 |  | 34.1
5 | COC(=O)C(F)C(Br)C(=O)OC (stereo not drawn) |  | 43.4 |  | 4.33 |  | 32 |  | 3.84 |  | 13.5 |  | 28.4 |  | 3.72 |  | 9.84 |  | 3.93 |  | 3.92
6 | C=CCNC(=O)NCCCC(NC(C)=O)C(=O)NCc1ccccc1 (stereo not drawn) |  | > 100 |  | > 100 |  | > 100 |  | > 100 |  | > 100 |  | > 100 |  | > 100 |  | > 100 |  | > 100 |  | > 100
7 | O=C(OCCBr)c1ccc(Cl)c([N+](=O)[O-])c1 | 17.7 | 37.6 | 2.69 | 6.43 | 10.2 | 26 | 16.3 | 32.4 | 11.2 | 27.2 | 9.02 | 22.9 | 3.15 | 13.2 | 1.71 | 3.2 | 15.7 | 42.6 | 18.4 | 37.1
8 | O=C(CN1CCN(c2ccccc2)CC1)N1CCN(c2nnc(-c3ccc(Cl)cc3)c(-c3ccc(Cl)cc3)n2)CC1 | > 100 | > 100 | 7.24 | 41.3 | 11.5 | 41.4 | 6.35 | > 100 | 23.4 | > 100 | 14.7 | > 100 | 3.32 | > 100 | 8.16 | 31 | 3.16 | 19.4 | 21.6 | > 100
9 | CC1(C)CC[C@]2(C(=O)N3CCOCC3)CC[C@]3(C)C(=CC[C@@H]4[C@@]5(C)C/C(=C/c6ccncc6)C(=O)C(C)(C)[C@@H]5CC[C@]43C)[C@@H]2C1 | 2.09 | 9.22 | 2.06 | > 100 | 1.24 | 2.72 | 0.939 | 11 | 2.41 | > 100 | 3.68 | > 100 | 0.637 | > 100 | 1.89 | 10.3 | 1.16 | 3.96 | 2.87 | > 100
10 | OCC1OC(n2cnc3c(=S)nc[nH]c32)C(O)C1O (stereo not drawn) | > 31.1 | > 2500 |  | > 2500 | 0.705 | > 2500 | 6.62 | > 2500 | 4.15 | > 2500 | > 100 | > 2500 | 1.04 | > 2500 | 58.3 | > 2500 | 3.82 | > 2210 | > 100 | > 2500
11 | CN(C)CC1CCCCCC(CN(C)C)C1=O (stereo not drawn) | 9.98 | 33.3 | 1.48 | 5.05 | 7.68 | 25 | 1.24 | 4.26 | 8.94 | 27 | 1.77 | 4.6 | 1.44 | 7.07 | 11.1 | 25.6 | 2.24 | 8.57 | 12.5 | 37.3
12 | CCCOC(=O)CCn1c(SC)nc2[nH]cc(-c3ccccc3)c2c1=O | 18.9 | 61.2 | 19.9 | 54.1 | 10.9 | 30.9 | 37.7 | > 100 | 8.34 | 43 | 33.8 | > 100 | 3.95 | 43.1 | 12.8 | 87.4 | 1.77 | 23.2 | 33.9 | > 100
